Results taken from patent US8242274B2, “Triazolopyridine kinase inhibitors useful for the treatment of degenerative and inflammatory diseases” (Galapagos NV, priority 2008, dated 2012).

Experiments:
[1] = system: pSTAT1(2)-luciferase reporter; assay: JAK-STAT signalling assay (HeLa cells, OSM trigger); format: cell-based; conditions: human OSM 33 ng/mL
Protocol: HeLa cells were maintained in Dulbecco's Modified Eagle's Medium (DMEM) containing 10% heat inactivated fetal calf serum, 100 U/mL penicillin and 100 μg/mL streptomycin. HeLa cells were used at 70% confluence for transfection. 20,000 cells in 87 μL cell culture medium were transiently transfected with 40 ng pSTAT1(2)-luciferase reporter (Panomics), 8 ng of LacZ reporter as internal control reporter and 52 ng of pBSK using 0.32 μL Jet-PEI (Polyplus) as transfection reagent per well in 96-well plate format. After overnight incubation at 37° C., 10% CO2, transfection medium was removed. 75 μL of DMEM+1.5% heat inactivated fetal calf serum was added. 15 μL of compound at 6.7× concentration was added for 60 min and then 10 μL of human OSM (Peprotech) at 33 ng/mL final concentration. […]
40 μL of cell lysate was used to read β-galactosidase activity by adding 180 μL βGal solution (30 μl ONPG 4 mg/mL+150 μL β-Galactosidase buffer (0.06 M Na2HPO4, 0.04 M NaH2PO4, 1 mM MgCl2)) for 20 min. The reaction was stopped by addition of 50 μL Na2CO3 1 M. Absorbance was read at 405 nm.
Luciferase activity was measured using 40 μL cell lysate plus 40 μl of Steadylite® as described by the manufacturer (Perkin Elmer), on the Envision (Perkin Elmer). […]

in vivo = conditions: male, Sprague-Dawley, rat, po
Protocol: A 7-day oral toxicity study with test compounds was performed in Sprague-Dawley male rats to assess their toxic potential and toxicokinetics, at daily doses of 100, 300 and 500 mg/kg/day, by gavage, at the constant dosage-volume of 5 mL/kg/day.
The test compounds were formulated in 30% (v/v) HPβCD in purified water. Each group included 5 principal male rats as well as 3 satellite animals for toxicokinetics. A fourth group was given 30% (v/v) HPβCD in water only, at the same frequency, dosage volume and by the same route of administration, and acted as the vehicle control group.
Compounds 37 and 176 were tested in this protocol.

TNF release = assay: Septic shock model (LPS); format: in vivo, mice; conditions: for reduction in the TNF release: statistically significant
Protocol: Injection of lipopolysaccharide (LPS) induces a rapid release of soluble tumour necrosis factor (TNF-alpha) into the periphery. This model is used to analyse prospective blockers of TNF release in vivo.
Six BALB/cJ female mice (20 g) per group were treated at the intended dosing once, po. Thirty minutes later, LPS (15 μg/kg; E. Coli serotype 0111:B4) was injected ip. Ninety minutes later, mice were euthanized and blood was collected. Circulating TNF alpha levels were determined using commercially available ELISA kits. Dexamethasone (5 μg/kg) was used as a reference anti-inflammatory compound. Selected compounds are tested at one or multiple doses, e.g. 3 and/or 10 and/or 30 mg/kg, po.

hERG channels = target: T1, hERG channels (Homo sapiens, UniProt Q12809); assay: hERG patch clamp assay, liability for QT prolongation; format: cell-based
T1 construct: expressed in transfected cells
T1 sequence (Q12809 whole entry): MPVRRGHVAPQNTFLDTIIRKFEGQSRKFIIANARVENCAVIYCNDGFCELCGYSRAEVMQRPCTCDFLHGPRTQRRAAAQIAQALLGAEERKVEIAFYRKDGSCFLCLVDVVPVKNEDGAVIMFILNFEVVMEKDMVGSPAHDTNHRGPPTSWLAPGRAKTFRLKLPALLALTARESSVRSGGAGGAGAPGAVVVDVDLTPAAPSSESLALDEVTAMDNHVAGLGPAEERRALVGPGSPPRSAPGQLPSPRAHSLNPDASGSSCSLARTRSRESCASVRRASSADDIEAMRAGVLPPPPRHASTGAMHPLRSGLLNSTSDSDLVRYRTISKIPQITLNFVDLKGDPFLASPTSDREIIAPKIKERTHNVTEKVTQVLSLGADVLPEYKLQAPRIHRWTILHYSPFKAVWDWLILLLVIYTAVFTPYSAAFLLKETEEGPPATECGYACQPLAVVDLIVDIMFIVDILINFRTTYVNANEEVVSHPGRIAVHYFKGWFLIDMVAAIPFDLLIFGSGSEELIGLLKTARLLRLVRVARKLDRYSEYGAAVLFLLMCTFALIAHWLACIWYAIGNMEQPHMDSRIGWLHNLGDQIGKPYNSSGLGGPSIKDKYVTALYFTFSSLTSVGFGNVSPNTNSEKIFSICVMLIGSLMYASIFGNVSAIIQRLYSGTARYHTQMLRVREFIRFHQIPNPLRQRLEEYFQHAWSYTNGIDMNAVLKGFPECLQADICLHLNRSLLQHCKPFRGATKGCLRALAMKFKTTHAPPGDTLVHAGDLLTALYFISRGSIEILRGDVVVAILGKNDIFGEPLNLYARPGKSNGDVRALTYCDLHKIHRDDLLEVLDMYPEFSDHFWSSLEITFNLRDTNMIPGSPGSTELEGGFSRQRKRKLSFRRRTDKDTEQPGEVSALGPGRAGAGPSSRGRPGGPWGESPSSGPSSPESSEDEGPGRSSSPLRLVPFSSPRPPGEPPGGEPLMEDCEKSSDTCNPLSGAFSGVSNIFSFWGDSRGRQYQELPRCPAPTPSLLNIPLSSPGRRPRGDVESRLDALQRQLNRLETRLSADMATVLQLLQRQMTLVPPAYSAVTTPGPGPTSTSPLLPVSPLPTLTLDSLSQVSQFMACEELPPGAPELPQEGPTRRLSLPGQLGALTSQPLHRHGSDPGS
Protocol: Electrodes were manufactured from GC150TF pipette glass (Harvard), resistance was between 2 and 3 MΩ.
IC50 and IC20 values were calculated for each compound tested. The fold difference between the IC20 and the unbound Cmax concentrations of the test compound obtained at relevant therapeutic doses as determined by results obtained from the rat CIA model was calculated.
For the concentration response curves, peak tail current amplitude was measured during the voltage step to −50 mV.

| SMILES | EC50 [1] | NOAEL at 7 day (in vivo) | Fold difference between the hERG IC20 and the unbound Cmax (hERG channels; Dose 10 (rat CIA model)) | also measured |
| --- | --- | --- | --- | --- |
| CC(=O)Nc1ccc(COc2ccc(-c3cccc4nc(NC(=O)C5CC5)nn34)cc2)cc1 [Compound 92, N-(5-(4-(4-acetamidobenzyloxy)phenyl)-[1,2,4]triazolo[1,5-a]pyridin-2-yl)cyclopropanecarboxamide] | > 1000 nM |  |  |  |
| O=C(Nc1nc2cccc(-c3ccc(OCc4ccccn4)cc3)n2n1)C1CC1 [Compound 37, N-(5-(4-(pyridin-2-ylmethoxy)phenyl)-[1,2,4]triazolo[1,5-a]pyridin-2-yl)cyclopropanecarboxamide] |  | 500 mg/kg | 7 | activity in the septic shock model (TNF release; 3 mg/kg): active |
| O=C(Nc1nc2cccc(-c3ccc(OCc4cccnc4)cc3)n2n1)C1CC1 [Compound 36, N-(5-(4-(pyridin-3-ylmethoxy)phenyl)-[1,2,4]triazolo[1,5-a]pyridin-2-yl)cyclopropanecarboxamide] |  |  |  | activity in the septic shock model (TNF release; 30 mg/kg): active |
| N#Cc1ccc(COc2ccc(-c3cccc4nc(NC(=O)C5CC5)nn34)cc2)cn1 [Compound 176, N-(5-(4-((6-cyanopyridin-3-yl)methoxy)phenyl)-[1,2,4]triazolo[1,5-a]pyridin-2-yl)cyclopropanecarboxamide] | 1 to 100 nM | 500 mg/kg | 82 | reduction in the TNF release (TNF release; 3 mg/kg po): > 50%; reduction in the TNF release (TNF release; 10 mg/kg po): > 50%; Fold difference between the hERG IC20 and the unbound Cmax (hERG channels; Dose 3 (rat CIA model)): 137; potential for QT prolongation (hERG channels; compared to Compound 37): much lower potential QT prolongation issue |
